System: A2780 (human ovarian cancer)
Test: Antiproliferative activity against drug-sensitive human A2780 cells

IC50 [nM] | Compound
390 | CC(C)=CCc1c(O)cc(/C=C/c2cc(O)c3c(c2)C[C@@H]2C(C)(C)[C@H](O)CC[C@@]2(C)O3)cc1O [SCHWEINFURTHIN G]
4500 | COc1cc(/C=C/c2cc(O)c3c(c2)OC(C)(C)C(O)C3)cc2c1O[C@]1(C)C[C@@H](O)[C@@H](O)C(C)(C)[C@H]1C2 (stereo partly drawn) [SCHWEINFURTHIN H]

Compound | IC50 [nM]
CC(C)=CCc1c(O)cc(/C=C/c2cc(O)c3c(c2)C[C@@H]2C(C)(C)[C@H](O)[C@H](O)C[C@@]2(C)O3)cc1O [VEDELIANIN] | 130

Source: ChEMBL document CHEMBL1142962, “Antiproliferative prenylated stilbenes and flavonoids from Macaranga alnifolia from the Madagascar rainforest” (J Nat Prod, 2007)
